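Briefly, cells in 96-well plates were exposed to five compound concentrations for 48 h, and endpoints were estimated by linear interpolation. The concentration for full growth arrest is given as TGI.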
Experiments:
Assay in all cases: NCI anticancer screen, dose series, 48 h
786-0 renal = system: 786-0 renal
A498 renal = system: A498 renal
A549 NSCLC = system: A549 NSCLC
ACHN renal = system: ACHN renal
BT-549 breast = system: BT-549 breast
CAKI-1 renal = system: CAKI-1 renal
COLO 205 colon = system: COLO 205 colon
DU-145 prostate = system: DU-145 prostate
EKVX NSCLC = system: EKVX NSCLC
HCC-2998 colon = system: HCC-2998 colon
HCT-116 colon = system: HCT-116 colon
HCT-15 colon = system: HCT-15 colon
HOP-62 NSCLC = system: HOP-62 NSCLC
HT29 colon = system: HT29 colon
IGROV1 ovarian = system: IGROV1 ovarian
K-562 leukemia = system: K-562 leukemia
KM12 colon = system: KM12 colon
LOX IMVI melanoma = system: LOX IMVI melanoma
M14 melanoma = system: M14 melanoma
MALME-3M melanoma = system: MALME-3M melanoma
MCF7 breast = system: MCF7 breast
MDA-MB-231 breast = system: MDA-MB-231 breast
MDA-MB-435 = system: MDA-MB-435
MDA-N = system: MDA-N
MOLT-4 leukemia = system: MOLT-4 leukemia
NCI-H226 lung = system: NCI-H226 lung
NCI-H23 lung = system: NCI-H23 lung
NCI-H460 lung = system: NCI-H460 lung
NCI-H522 lung = system: NCI-H522 lung
NCI/ADR-RES ovarian = system: NCI/ADR-RES ovarian
OVCAR-4 ovarian = system: OVCAR-4 ovarian
OVCAR-5 ovarian = system: OVCAR-5 ovarian
OVCAR-8 ovarian = system: OVCAR-8 ovarian
PC-3 prostate = system: PC-3 prostate
RPMI-8226 leukemia = system: RPMI-8226 leukemia
RXF 393 renal = system: RXF 393 renal
SF-268 CNS = system: SF-268 CNS
SF-295 CNS = system: SF-295 CNS
SF-539 CNS = system: SF-539 CNS
SK-MEL-2 melanoma = system: SK-MEL-2 melanoma
SK-MEL-28 melanoma = system: SK-MEL-28 melanoma
SK-MEL-5 melanoma = system: SK-MEL-5 melanoma
SK-OV-3 ovarian = system: SK-OV-3 ovarian
SN12C renal = system: SN12C renal
SNB-19 CNS = system: SNB-19 CNS
SNB-75 CNS = system: SNB-75 CNS
SR leukemia = system: SR leukemia
SW-620 colon = system: SW-620 colon
T-47D breast = system: T-47D breast
TK-10 renal = system: TK-10 renal
U251 CNS = system: U251 CNS
UACC-257 melanoma = system: UACC-257 melanoma
UACC-62 melanoma = system: UACC-62 melanoma
UO-31 renal = system: UO-31 renal
CCRF-CEM leukemia = system: CCRF-CEM leukemia
HL-60(TB) leukemia = system: HL-60(TB) leukemia
HOP-92 NSCLC = system: HOP-92 NSCLC
HS 578T breast = system: HS 578T breast
OVCAR-3 ovarian = system: OVCAR-3 ovarian

`O=C(O)C[C@@H]1[C@@H](O)[C@@H](O)CN2C(=O)c3ccccc3[C@H]12` was tested. Which TGI (786-0 renal) did it give?
Its TGI is over 100 µM.

What about the TGI (A498 renal) of the same compound?
Its TGI is over 100 µM.

And the TGI (A549 NSCLC)?
Its TGI is over 100 µM.

What about the TGI (ACHN renal) of the same compound?
Its TGI is over 100 µM.

What about the TGI (BT-549 breast) of the same compound?
Its TGI is over 100 µM.

What about the TGI (CAKI-1 renal) of the same compound?
Its TGI is over 100 µM.

And the TGI (COLO 205 colon)?
Its TGI is over 100 µM.

And the TGI (DU-145 prostate)?
Its TGI is over 100 µM.

And the TGI (EKVX NSCLC)?
The TGI was over 100 µM.

What about the TGI (HCC-2998 colon) of the same compound?
The TGI was over 100 µM.

What about the TGI (HCT-116 colon) of the same compound?
The TGI was over 100 µM.

What about the TGI (HCT-15 colon) of the same compound?
Its TGI is over 100 µM.

What about the TGI (HOP-62 NSCLC) of the same compound?
Its TGI is over 100 µM.

And the TGI (HT29 colon)?
Its TGI is over 100 µM.

And the TGI (IGROV1 ovarian)?
Its TGI is over 100 µM.

And the TGI (K-562 leukemia)?
Its TGI is over 100 µM.

And the TGI (KM12 colon)?
Its TGI is over 100 µM.

And the TGI (LOX IMVI melanoma)?
The TGI was over 100 µM.

And the TGI (M14 melanoma)?
The TGI was over 100 µM.

What about the TGI (MALME-3M melanoma) of the same compound?
The TGI was over 100 µM.

What about the TGI (MCF7 breast) of the same compound?
Its TGI is over 100 µM.

And the TGI (MDA-MB-231 breast)?
The TGI was over 100 µM.

What about the TGI (MDA-MB-435) of the same compound?
The TGI was over 100 µM.

What about the TGI (MDA-N) of the same compound?
The TGI was over 100 µM.

What about the TGI (MOLT-4 leukemia) of the same compound?
The TGI was over 100 µM.

And the TGI (NCI-H226 lung)?
Its TGI is over 100 µM.

What about the TGI (NCI-H23 lung) of the same compound?
The TGI was over 100 µM.

And the TGI (NCI-H460 lung)?
The TGI was over 100 µM.

And the TGI (NCI-H522 lung)?
Its TGI is over 100 µM.

What about the TGI (NCI/ADR-RES ovarian) of the same compound?
The TGI was over 100 µM.

And the TGI (OVCAR-4 ovarian)?
The TGI was over 100 µM.

And the TGI (OVCAR-5 ovarian)?
The TGI was over 100 µM.

And the TGI (OVCAR-8 ovarian)?
The TGI was over 100 µM.

And the TGI (PC-3 prostate)?
Its TGI is over 100 µM.

What about the TGI (RPMI-8226 leukemia) of the same compound?
Its TGI is over 100 µM.

And the TGI (RXF 393 renal)?
Its TGI is over 100 µM.

And the TGI (SF-268 CNS)?
Its TGI is over 100 µM.

And the TGI (SF-295 CNS)?
The TGI was over 100 µM.

And the TGI (SF-539 CNS)?
Its TGI is over 100 µM.

And the TGI (SK-MEL-2 melanoma)?
The TGI was over 100 µM.

And the TGI (SK-MEL-28 melanoma)?
The TGI was over 100 µM.

And the TGI (SK-MEL-5 melanoma)?
Its TGI is over 100 µM.

And the TGI (SK-OV-3 ovarian)?
Its TGI is over 100 µM.

And the TGI (SN12C renal)?
Its TGI is over 100 µM.

What about the TGI (SNB-19 CNS) of the same compound?
Its TGI is over 100 µM.

And the TGI (SNB-75 CNS)?
Its TGI is over 100 µM.

And the TGI (SR leukemia)?
Its TGI is over 100 µM.

And the TGI (SW-620 colon)?
The TGI was over 100 µM.

And the TGI (T-47D breast)?
The TGI was over 100 µM.

And the TGI (TK-10 renal)?
Its TGI is over 100 µM.

What about the TGI (U251 CNS) of the same compound?
Its TGI is over 100 µM.

And the TGI (UACC-257 melanoma)?
Its TGI is over 100 µM.

What about the TGI (UACC-62 melanoma) of the same compound?
The TGI was over 100 µM.

And the TGI (UO-31 renal)?
The TGI was over 100 µM.

`C(=Nc1ccc(-c2nc3ccccc3[nH]2)cc1)c1ccc[nH]1` was tested. Which TGI (786-0 renal) did it give?
The TGI was over 100 µM.

What about the TGI (A498 renal) of the same compound?
The TGI was over 100 µM.

What about the TGI (A549 NSCLC) of the same compound?
Its TGI is over 100 µM.

And the TGI (ACHN renal)?
Its TGI is over 100 µM.

What about the TGI (BT-549 breast) of the same compound?
Its TGI is over 100 µM.

And the TGI (CAKI-1 renal)?
Its TGI is over 100 µM.

What about the TGI (CCRF-CEM leukemia) of the same compound?
The TGI was 85.1 µM.

What about the TGI (COLO 205 colon) of the same compound?
Its TGI is over 100 µM.

And the TGI (DU-145 prostate)?
Its TGI is over 100 µM.

What about the TGI (EKVX NSCLC) of the same compound?
The TGI was over 100 µM.

And the TGI (HCC-2998 colon)?
Its TGI is over 100 µM.

What about the TGI (HCT-116 colon) of the same compound?
Its TGI is over 100 µM.

What about the TGI (HCT-15 colon) of the same compound?
Its TGI is over 100 µM.

What about the TGI (HL-60(TB) leukemia) of the same compound?
The TGI was 20.1 µM.

And the TGI (HOP-62 NSCLC)?
The TGI was over 100 µM.

What about the TGI (HOP-92 NSCLC) of the same compound?
The TGI was over 100 µM.

What about the TGI (HS 578T breast) of the same compound?
The TGI was over 100 µM.

What about the TGI (HT29 colon) of the same compound?
Its TGI is over 100 µM.

And the TGI (IGROV1 ovarian)?
Its TGI is over 100 µM.

What about the TGI (K-562 leukemia) of the same compound?
Its TGI is over 100 µM.

What about the TGI (KM12 colon) of the same compound?
The TGI was over 100 µM.

And the TGI (LOX IMVI melanoma)?
Its TGI is over 100 µM.

What about the TGI (M14 melanoma) of the same compound?
The TGI was over 100 µM.

And the TGI (MALME-3M melanoma)?
The TGI was over 100 µM.

What about the TGI (MCF7 breast) of the same compound?
The TGI was over 100 µM.

And the TGI (MDA-MB-435)?
Its TGI is over 100 µM.

What about the TGI (MDA-N) of the same compound?
Its TGI is over 100 µM.

And the TGI (MOLT-4 leukemia)?
Its TGI is over 100 µM.

And the TGI (NCI-H23 lung)?
The TGI was over 100 µM.

And the TGI (NCI-H522 lung)?
The TGI was over 100 µM.

And the TGI (NCI/ADR-RES ovarian)?
Its TGI is over 100 µM.

And the TGI (OVCAR-3 ovarian)?
Its TGI is over 100 µM.

And the TGI (OVCAR-4 ovarian)?
Its TGI is over 100 µM.

And the TGI (OVCAR-5 ovarian)?
The TGI was over 100 µM.

And the TGI (OVCAR-8 ovarian)?
The TGI was over 100 µM.

And the TGI (PC-3 prostate)?
Its TGI is over 100 µM.

And the TGI (RPMI-8226 leukemia)?
The TGI was over 100 µM.

And the TGI (RXF 393 renal)?
Its TGI is over 100 µM.

What about the TGI (SF-268 CNS) of the same compound?
The TGI was over 100 µM.

What about the TGI (SF-539 CNS) of the same compound?
Its TGI is over 100 µM.

And the TGI (SK-MEL-2 melanoma)?
The TGI was over 100 µM.

And the TGI (SK-MEL-28 melanoma)?
The TGI was over 100 µM.

And the TGI (SK-MEL-5 melanoma)?
The TGI was over 100 µM.

What about the TGI (SN12C renal) of the same compound?
The TGI was over 100 µM.

And the TGI (SNB-75 CNS)?
The TGI was over 100 µM.

What about the TGI (SR leukemia) of the same compound?
The TGI was over 100 µM.

And the TGI (SW-620 colon)?
Its TGI is over 100 µM.

What about the TGI (T-47D breast) of the same compound?
Its TGI is over 100 µM.

What about the TGI (TK-10 renal) of the same compound?
Its TGI is over 100 µM.

And the TGI (UACC-257 melanoma)?
Its TGI is over 100 µM.

And the TGI (UACC-62 melanoma)?
Its TGI is over 100 µM.

What about the TGI (UO-31 renal) of the same compound?
Its TGI is over 100 µM.

Source: PubChem BioAssay (NCI)
